This note sets out measurements from ChEMBL document CHEMBL1123061, “Potentiation of fasciolicidal agents by benzoyl side chains. Synthesis of benzoylsalicylanilides” (1985).

The test concerns Fasciola hepatica. Nature of the test: In vivo for fasciolicidal activity against Fasciola hepatica infections in rats following s.c. administration.

In turn, `Cc1cc(C(=O)c2ccc(Cl)cc2)cc(C(=O)Nc2cc(Cl)cc(Cl)c2)c1O` returned a Dose of 100 mg/kg.
Turning to `Cc1cc(C(=O)c2ccc(Cl)cc2)cc(C(=O)Nc2ccc(Br)cc2C(F)(F)F)c1O`, the Dose was 6.3 mg/kg.
Compound `O=C(c1ccc(Cl)cc1)c1ccc(O)c(C(=O)Nc2ccc([N+](=O)[O-])cc2Cl)c1` displayed a Dose of 25 mg/kg.
In the case of `Cc1cc(C(=O)c2ccc(Cl)c(Cl)c2)cc(C(=O)Nc2ccc([N+](=O)[O-])cc2Cl)c1O` it was 3.1 mg/kg; in that of `Cc1cc(C(=O)c2ccc(Br)cc2)cc(C(=O)Nc2ccc([N+](=O)[O-])cc2Cl)c1O`, 3.1 mg/kg; in that of `Cc1cc(C(=O)c2ccc([N+](=O)[O-])cc2)cc(C(=O)Nc2ccc(Cl)cc2Cl)c1O`, 12.5 mg/kg.
Next, `Cc1cc(C(=O)c2ccc(Cl)cc2)cc(C(=O)Nc2ccc([N+](=O)[O-])cc2Cl)c1O`: 6.3 mg/kg; `Cc1cc(Cc2ccccc2)cc(C(=O)Nc2ccc(Cl)cc2Cl)c1O`: 100 mg/kg; `Cc1cc(C(=O)c2ccc(C#N)cc2)cc(C(=O)Nc2ccc([N+](=O)[O-])cc2Cl)c1O`: 6.3 mg/kg.
The compound `Cc1cc(C(=O)c2ccc(Cl)cc2)cc(C(=O)Nc2ccc([N+](=O)[O-])cc2C(F)(F)F)c1O` registered a Dose of 6.3 mg/kg.
`Cc1c(C(=O)c2ccc(Cl)cc2)cc(C(C)(C)C)c(O)c1C(=O)Nc1ccc([N+](=O)[O-])cc1Cl` gave a Dose of 1.6 mg/kg.
In the case of `Cc1cc(C(=O)c2ccc(Cl)cc2)cc(C(=O)Nc2ccc(C#N)cc2)c1O` it was 100 mg/kg.
Next, `Cc1cc(C(=O)c2ccc(Br)cc2)cc(C(=O)Nc2ccc(Cl)cc2Cl)c1O`: 100 mg/kg; `Cc1cc(C(=O)c2ccc([N+](=O)[O-])cc2)cc(C(=O)Nc2ccc([N+](=O)[O-])cc2Cl)c1O`: 6.3 mg/kg; `Cc1cc(C(=O)c2ccc(Cl)cc2)cc(C(=O)Nc2ccc([N+](=O)[O-])cc2Br)c1O`: 3.1 mg/kg.
Consider `Cc1cc(C(=O)c2ccc(Cl)cc2Cl)cc(C(=O)Nc2ccc([N+](=O)[O-])cc2Cl)c1O`, for which the Dose was found to be 6.3 mg/kg.
Next, `Cc1cc(C(=O)c2ccc(Cl)cc2)cc(C(=O)Nc2ccc(Cl)c(Cl)c2)c1O`: 100 mg/kg.
Next, `Cc1cc(C(=O)c2ccc(I)cc2)cc(C(=O)Nc2ccc([N+](=O)[O-])cc2Cl)c1O`: 12.5 mg/kg; `Cc1cc(Oc2ccccc2)cc(C(=O)Nc2ccc(Cl)cc2Cl)c1O`: 100 mg/kg.
`Cc1cc(C(=O)c2ccc(Cl)cc2)c(C)c(C(=O)Nc2ccc([N+](=O)[O-])cc2Cl)c1O`: the Dose is 3.1 mg/kg.
In the case of `O=C(Nc1ccc(Oc2ccc(Cl)cc2)c(Cl)c1)c1cc(I)cc(I)c1O` [RAFOXANIDE] it was 12.5 mg/kg.
